Experimental data as given in patent publication US10183015B2, “Heterocyclic compounds and methods of use” (Medivation Technologies LLC, priority 2015, dated 2019).
Where “and” joins values, the source holds several entries; their conditions need not be identical. Identical values can stand only once.

Columns and labels:
[1] = system: ob/ob mice; assay: ob/ob mice: liver triglycerides, fatty acids, total cholesterol; format: in vivo, mouse; conditions: 8 weeks; for liver fatty acids / liver total cholesterol / liver triglycerides: ob/ob mice
Protocol: Groups of mice were either untreated (group 1) or treated for 8 weeks with vehicle (group 2), or with Compound #37 at 5 mg/kg (group 3), 10 mg/kg (group 4), or 20 mg/kg (group 5). Treatment was daily by oral gavage in vehicle (20% HPβCD). Values are presented as mean±standard error of the mean (sem). A t test was performed to compare the untreated group and the vehicle group. Then Compound #37-treated groups were compared to the vehicle-treated group with a 1-way ANOVA+Dunnett's post-test. […] For each test, a p<0.05 was considered significant. Of note, animal #39, group 1 was excluded from the statistical analysis, due to low values for all parameters measured. Some other values were considered as out-liners and excluded from the statistical analysis when the value was far below the mean minus 2 SD. Excluded values are marked with an asterisk in Tables 21-23.

[2] = system: FAS; assay: Short-term Paigen-diet NASH mouse model: hepatic FAS gene expression (RT-qPCR); format: in vivo; conditions: FAS relative expression to vehicle group, 21 days
Protocol: To investigate whether Compound #37 prevents the development of pathology associated with NASH and steatosis in an acute exploratory disease model, a study was conducted using a diet-induced acute liver steatosis model in mice. As described below, in this study, C57BL/6J mice were initiated on the Paigen diet and simultaneously treated with Compound #37 (5, 20, and 40 mg/kg/day) or vehicle control (20% HPβCD 10 mL/kg/day) by oral gavage for 21 days.
After acclimation, 8-week old male C57Bl/6J mice (Charles River) weighing about 25 g were randomized in 4 groups according their body weight and treated once daily around noon by oral gavage with vehicle, or Compound #37 at various for 21 days as follows: Group 1: vehicle-20% (2-hydroxypropyl)-β-cyclodextrin (HP-β-CD) (n=10); Group 2: Compound #37, 5 mg/kg (n=10) Group 3: Compound #37, 20 mg/kg (n=10) Group 4: Compound #37, 40 mg/kg (n=10). During the treatment period, body weight and food intake (measured over 24h) were measured 3 times per week and once a week, respectively. During the acclimation, all mice were fed a standard diet (Special Diets Services RM1 (E), product no. 801492) and tap water ad libitum. After the acclimation period, mice were fed until the end of the experiment with a 60% high fat Paigen diet (60 kcal % fat, 1.25% cholesterol, and 0.5% cholate; D11061901, Research Diet) and tap water ad libitum.
Gene expression analysis. Hepatic expression levels of genes involved in lipid metabolism (FAS, SREBP1, ACC1, SCD1), cholesterol metabolism (HMG-CoAR, LDLR), SREBP proteolysis (SCAP, INSIG1), ER stress (PERK), oxidative stress (NRF2), inflammation (MCP-1), and fibrosis (collagen 1α1) were quantified by RTqPCR. Expression level was normalized to 18S gene expression and relative expression to vehicle group was calculated with the […] method.

[3] = system: diet-induced NASH obese insulin resistant mice; assay: DIN mouse model: plasma lipid levels; format: in vivo; conditions: 20 mg/kg, end of treatment
Protocol: Male C57Bl/6J mice (8 weeks old) were housed in enriched ventilated cages (31×12.5×12.7 cm) throughout the experimental phase. Animals' cages litters were changed at least once a week. Animal were housed 5 per cage on inverted 12-hour light cycle (at 09:00 am lights off), 22±2° C. and 55±10% relative humidity. The acclimation period was 20 days. During the acclimation period, all mice were fed a standard diet (RM1 (E) 801492, SDS) and tap water ad libitum. After the acclimation period, mice were fed with the DIN diet (60% fat, cholesterol enriched) and fructose-enriched tap water ad libitum until the end of the experiment.
At 6 weeks of diet, mice were 4-hour fasted (09:00 am to 1:00 pm) and blood (150 μl/EDTA) was collected at 01:00 pm by retro-orbital bleeding under isoflurane anesthesia. Mice were then allocated in 2 homogenous groups (n=12/group) according to their plasma levels of ALT (average levels: 685U/L), AST (average levels: 627U/L) and HOMA-IR index (average value: 4.7), into 2 homogenous groups (see values at day 0 in Tables 15A and 15B ALT/AST and Tables 16A and 16B for HOMA-IR). Mice were then treated once daily by oral gavage with vehicle (Group 1) or Compound #37 at 20 mg/kg (Group 2) for 70 days.
To investigate whether Compound #37 improves pre-existing steatosis/NASH pathology, a study was conducted using a 16-week diet-induced NASH mouse model. In this model, mice develop steatosis that progresses with inflammation and fibrosis that mimic many of the observed pathologies in human nonalcoholic fatty liver disease (NAFLD) and NASH (Hebbard & George, 2010). For 6 weeks, mice were fed a high-fat, high-cholesterol diet and provided drinking water containing fructose to induce liver pathology (Charlton et al, 2011). After 6 weeks, the mice were divided into 2 groups with similar mean aspartate aminotransferase (AST) and alanine aminotransferase (ALT) values (n=12 mice), although it should be noted that AST and ALT concentrations within both groups were higher and with greater variability than anticipated (e.g., mean ALT 677 U/L [SD, 401 U/L] in the vehicle control group and 693 U/L [SD, 365 U/L] in the Compound #37 group). After the animals were divided into 2 groups, the diet was continued for 10 additional weeks during which time 1 group received vehicle and the other was treated with 20 mg/kg/day Compound #37.

[4] = 5 mg/kg daily oral gavage, group mean
[5] = 5 mg/kg daily oral gavage, individual animal values, 5 mg/kg
[6] = 10 mg/kg daily oral gavage, group mean
[7] = 10 mg/kg daily oral gavage, individual animal values, 10 mg/kg
[8] = 20 mg/kg daily oral gavage, group mean
[9] = 20 mg/kg daily oral gavage, individual animal values (* = excluded from statistical analysis), 20 mg/kg

CC(C)Cc1cc(-c2nc(-c3ccc(NS(=O)(=O)C(F)(F)F)cc3Cl)cs2)ccn1 [Compound 37, N-(3-chloro-4-(2-(2-isobutylpyridin-4-yl)thiazol-4-yl)phenyl)-1,1,1-trifluoromethanesulfonamide]
hepatic cholesterol concentrations [1]: no effect
liver fatty acids [1, 4]: 35.9 nmol/mg liver
liver total cholesterol [1, 4]: 12.5 μg/mg liver
liver triglycerides [1, 4]: 80.3 μg/mg liver
liver fatty acids [1, 5]: 21.39 nmol/mg liver and 38.65 nmol/mg liver and 43.56 nmol/mg liver and 43.68 nmol/mg liver and 42.30 nmol/mg liver and 26.81 nmol/mg liver and 31.47 nmol/mg liver and 34.22 nmol/mg liver and 40.04 nmol/mg liver and 36.50 nmol/mg liver
liver total cholesterol [1, 5]: 9.57 μg/mg liver and 13.21 μg/mg liver and 16.08 μg/mg liver and 15.08 μg/mg liver and 14.41 μg/mg liver and 9.18 μg/mg liver and 10.40 μg/mg liver and 12.19 μg/mg liver and 13.20 μg/mg liver and 13.39 μg/mg liver
liver triglycerides [1, 5]: 32.54 μg/mg liver and 89.34 μg/mg liver and 118.92 μg/mg liver and 123.01 μg/mg liver and 111.66 μg/mg liver and 54.15 μg/mg liver and 66.99 μg/mg liver and 69.20 μg/mg liver and 107.70 μg/mg liver and 29.81 μg/mg liver
liver fatty acids [1, 6]: 47.00 nmol/mg liver
liver total cholesterol [1, 6]: 14.47 μg/mg liver
liver triglycerides [1, 6]: 115.44 μg/mg liver
liver fatty acids [1, 7]: 29.78 nmol/mg liver and 49.10 nmol/mg liver and 42.91 nmol/mg liver and 39.50 nmol/mg liver and 43.38 nmol/mg liver and 48.06 nmol/mg liver and 58.06 nmol/mg liver and 46.42 nmol/mg liver and 53.47 nmol/mg liver and 59.33 nmol/mg liver
liver total cholesterol [1, 7]: 11.02 μg/mg liver and 14.95 μg/mg liver and 15.25 μg/mg liver and 11.27 μg/mg liver and 14.07 μg/mg liver and 16.04 μg/mg liver and 17.20 μg/mg liver and 13.65 μg/mg liver and 14.90 μg/mg liver and 17.30 μg/mg liver
liver triglycerides [1, 7]: 71.81 μg/mg liver and 110.46 μg/mg liver and 96.59 μg/mg liver and 67.76 μg/mg liver and 106.16 μg/mg liver and 153.12 μg/mg liver and 128.22 μg/mg liver and 157.22 μg/mg liver and 124.56 μg/mg liver and 138.07 μg/mg liver
liver fatty acids [1, 8]: 42.4 nmol/mg liver
liver total cholesterol [1, 8]: 13.8 μg/mg liver
liver triglycerides [1, 8]: 106.3 μg/mg liver
liver fatty acids [1, 9]: 46.82 nmol/mg liver and 11.67* nmol/mg liver and 43.19 nmol/mg liver and 56.93 nmol/mg liver and 36.64 nmol/mg liver and 43.21 nmol/mg liver and 40.58 nmol/mg liver and 33.97 nmol/mg liver and 38.27 nmol/mg liver and 41.87 nmol/mg liver
liver total cholesterol [1, 9]: 16.75 μg/mg liver and 7.14* μg/mg liver and 13.56 μg/mg liver and 17.52 μg/mg liver and 11.98 μg/mg liver and 14.67 μg/mg liver and 14.39 μg/mg liver and 13.53 μg/mg liver and 12.83 μg/mg liver and 9.07 μg/mg liver
liver triglycerides [1, 9]: 115.27 μg/mg liver and 10.45* μg/mg liver and 99.74 μg/mg liver and 160.82 μg/mg liver and 71.59 μg/mg liver and 95.60 μg/mg liver and 114.62 μg/mg liver and 92.80 μg/mg liver and 91.36 μg/mg liver and 115.09 μg/mg liver
2DDct ([2]; 5 mg/kg, group mean): 1.12
2DDct ([2]; 5 mg/kg, individual animals, 5 mg/kg): 2.2 and 1.54 and 1.55 and 2.34 and 0.68 and 0.39 and 0.91 and 0.65 and 0.33 and 0.59
2DDct ([2]; 20 mg/kg, group mean): 1.18
2DDct ([2]; 20 mg/kg, individual animals, 20 mg/kg): 1.48 and 0.56 and 0.63 and 1.65 and 0.9 and 1.88
HDL-cholesterol increase ([3]; p<0.05 vs. vehicle): 31%
plasma HDL cholesterol ([3]; group mean, n 11): 1.42 g/L
plasma cholesterol ([3]; group mean, n 11): 1.82 g/L
plasma free fatty acids ([3]; group mean, n 11): 0.59 mM
plasma triglycerides ([3]; group mean, n 11): 0.40 g/L
plasma HDL cholesterol ([3]; individual animals): 1.65 g/L and 1.68 g/L and 1.10 g/L and 1.47 g/L (2×) and 1.90 g/L and 1.12 g/L and 1.43 g/L and 0.62 g/L and 1.62 g/L and 1.56 g/L
plasma cholesterol ([3]; individual animals): 2.49 g/L and 2.36 g/L and 1.95 g/L and 1.67 g/L and 2.12 g/L and 1.38 g/L and 1.62 g/L and 1.15 g/L and 1.57 g/L and 1.86 g/L and 1.90 g/L
plasma free fatty acids ([3]; individual animals): 0.73 mM and 0.63 mM and 0.59 mM (3×) and 0.29 mM and 0.65 mM and 0.56 mM and 0.71 mM and 0.44 mM and 0.67 mM
plasma triglycerides ([3]; individual animals): 0.37 g/L (2×) and 0.3 g/L and 0.42 g/L and 0.35 g/L and 0.40 g/L and 0.34 g/L and 0.45 g/L and 0.50 g/L and 0.47 g/L and 0.39 g/L
